21 molecules from patent publication US11414422B2, “Substituted pyrido[4,3-b]indoles and azepino[4,5-b]indoles as inhibitors of cGAS” (The Rockefeller University, priority 2018, dated 2022) can be followed below.

One test relates to THP1 cells. In words: IFNB1 mRNA expression, qRT-PCR, THP1 cells. It counts as cell-based. The conditions noted are these: Homo sapiens, read-out: THP1, qRT-PCR IC50. Background: Quantitative PCR measures a nucleic acid by following its amplification.
For test [1], the system named is primary human macrophage cells. In words: IFNB1 mRNA expression, qRT-PCR, primary human macrophages. It counts as cell-based. The settings on record: read-out: Human Macrophage, qRT-PCR IC50.
Another test concerns human PBMCs. In words: IFNB1 mRNA expression, qRT-PCR, human PBMCs. In kind it is cell-based. The settings on record: PBMC, 4 hours post-transfection of dsDNA.
A further test deals with THP1-Dual cells. In words: Cell-based Lucia luciferase assay in THP1-Dual cells (dsDNA transfection). The settings on record: Homo sapiens, 1 h pre-incubation, 100-bp dsDNA transfection for 24 h.
For the next test, the target named is T1, h-cGAS (Homo sapiens, UniProt Q8N884).
T1 construct: The final concentration of full-length h-cGAS, dsDNA, ATP, and GTP were 100 nM
T1 sequence (Q8N884 whole entry): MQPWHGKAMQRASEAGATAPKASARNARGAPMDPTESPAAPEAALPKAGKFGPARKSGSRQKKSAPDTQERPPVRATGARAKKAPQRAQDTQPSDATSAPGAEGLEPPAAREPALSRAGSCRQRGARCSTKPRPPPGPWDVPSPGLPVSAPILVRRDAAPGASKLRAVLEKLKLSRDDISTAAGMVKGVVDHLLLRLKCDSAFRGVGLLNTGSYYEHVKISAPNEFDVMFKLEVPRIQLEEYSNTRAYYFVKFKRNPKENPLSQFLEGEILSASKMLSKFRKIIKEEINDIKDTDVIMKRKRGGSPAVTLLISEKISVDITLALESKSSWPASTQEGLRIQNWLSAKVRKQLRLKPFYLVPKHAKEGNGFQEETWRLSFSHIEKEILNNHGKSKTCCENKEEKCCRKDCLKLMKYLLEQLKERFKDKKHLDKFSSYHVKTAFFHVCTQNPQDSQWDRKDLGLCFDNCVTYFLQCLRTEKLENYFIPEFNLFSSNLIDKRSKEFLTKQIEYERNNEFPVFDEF
In words: cGAS biochemical assay, RapidFire 365 mass spectrometry (RF-MS). The conditions noted are these: full-length h-cGAS 100 nM, dsDNA 25 nM, ATP and GTP 100 μM, 7 h at RT.

Setting [2] is: THP-1, IFNB1 mRNA, 4 hours post-transfection of dsDNA.
Setting [3] is: IFNB1 mRNA, 4 hours post-transfection of dsDNA.
Where [4] appears, read: fresh PBMCs, read-out: Fresh human PBMCs, qRT-PCR IC50.

For orientation: IC50 means the concentration at which inhibition is half-maximal.

Molecules are shown by their SMILES. Read-outs that look alike come from different tables or passages of the source.

Turning to `Cn1ccc(-c2cc(Cl)c(Cl)c3[nH]c4c(c23)CN(C(=O)CO)CC4)n1` [TDI-008077], the IC50 came out at 930 nM with THP1 cells (setting [2]); 860 nM in test [1] (setting [3]); 1150 nM in the test on human PBMCs (setting [4]); 3320 nM in the test with THP1-Dual cells; 14.6 nM against h-cGAS.

As to `O=C(CO)N1CCc2[nH]c3c(Cl)c(Cl)cc(-c4cn[nH]c4)c3c2C1` [TDI-007445, 1-(6,7-Dichloro-9-(1H-pyrazol-4-yl)-1,3,4,5-tetrahydro-2H-pyrido[4,3-b]indol-2-yl)-2-hydroxyethan-1-one], the IC50 in the test with THP1 cells (setting [2]) came out at 1440 nM; in test [1] (setting [3]), 1200 nM; with THP1-Dual cells, 5260 nM.

Regarding `Cn1cc(-c2cc(Cl)c(Cl)c3[nH]c4c(c23)CN(C(=O)CO)CC4)cn1` [TDI-007635], the IC50 with THP1 cells (setting [2]) came out at 2140 nM; in the test on THP1-Dual cells, 8140 nM; at h-cGAS, 42.8 nM.

With `Nc1ccc(-c2cc(Cl)c(Cl)c3[nH]c4c(c23)CN(C(=O)CO)CC4)cn1` [TDI-008087], the IC50 was 950 nM in the test with THP1 cells (THP-1, 4 h); 620 nM in test [1] (4 h); 1970 nM in the test on THP1-Dual cells.

With `CC1CCN(c2cc(Cl)c(F)c3[nH]c4c(c23)CN(C(=O)CO)CC4)C1` (stereo not shown) [TDI-008863], the figures for the IC50 in the test with THP1-Dual cells and at h-cGAS were greater than 10000 nM and 147 nM, respectively.

`Cn1ccc(-c2cc(Cl)c(C#N)c3[nH]c4c(c23)CN(C(=O)CO)CC4)n1` [TDI-009208]: the IC50 with THP1-Dual cells came out at 4400 nM; against h-cGAS, 39.2 nM.

As for `COCCn1c2c(c3c(-c4ccn(C)n4)cc(Cl)c(F)c31)CN(C(=O)CO)CC2` [TDI-008292], the IC50 was greater than 40000 nM in the test on THP1-Dual cells and 402 nM at h-cGAS.

Turning to `O=C(CO)N1CCc2[nH]c3c(Cl)c(Cl)cc(-c4ccco4)c3c2C1` [TDI-008070], the IC50 in the test with THP1-Dual cells amounted to 4950 nM; at h-cGAS, 22.8 nM.

As for `O=C(CO)N1CCc2[nH]c3c(Cl)c(Cl)cc(-c4ccccc4)c3c2C1` [TDI-008071], the IC50 in the test with THP1-Dual cells is 9000 nM; against h-cGAS it was 39.3 nM.

For `O=C(CO)N1CCc2[nH]c3c(F)c(Cl)cc(N4CCCC4)c3c2C1` [TDI-008860], the results for the IC50 in the test with THP1-Dual cells and against h-cGAS were greater than 10000 nM and 350 nM, respectively.

For the molecule `O=C(CO)N1CCc2[nH]c3c(F)c(Cl)cc(N4CCCC4=O)c3c2C1` [TDI-009072], the IC50 with THP1-Dual cells is greater than 40000 nM; against h-cGAS, 18600 nM.

For `O=C(CO)N1CCc2c(c3c(-c4cn[nH]c4)cc(Cl)c(F)c3n2C(F)F)C1` [TDI-008136], the IC50 in the test with THP1-Dual cells turned out to be 15900 nM; against h-cGAS it was 416 nM.

On to `Cn1ccc(-c2cc(Cl)c(F)c3[nH]c4c(c23)CN(C(=O)CO)CC4)n1` [TDI-008246, 1-(7-Chloro-6-fluoro-9-(1-methyl-1H-pyrazol-3-yl)-1,3,4,5-tetrahydro-2H-pyrido[4,3-b]indol-2-yl)-2-hydroxyethan-1-one], for which the IC50 was determined as 1090 nM with THP1 cells (setting [2]); 600 nM in test [1] (setting [3]); 1160 nM in the test on human PBMCs (freeze-thawed PBMCs, read-out: Freeze-thawed human PBMCs, qRT-PCR IC50); 1120 nM in the test with human PBMCs (setting [4]); 1700 nM in the test on THP1-Dual cells; 23 nM at h-cGAS.

As to `O=C(CO)N1CCc2[nH]c3c(Cl)c(Cl)cc(-c4cccnc4)c3c2C1` [TDI-008073], the IC50 with THP1-Dual cells turned out to be 6230 nM; against h-cGAS, 20.4 nM.

Consider `O=C(CO)N1CCc2[nH]c3c(Cl)c(Cl)cc(-c4ccc5nonc5c4)c3c2C1` [TDI-008117], for which the figures for the IC50 in the test on THP1-Dual cells and on h-cGAS were 6190 nM and 18.2 nM, respectively.

Turning to `O=C(CO)N1CCc2[nH]c3c(F)c(Cl)cc(-n4cccn4)c3c2C1` [TDI-009013, 1-(7-chloro-6-fluoro-9-pyrazol-1-yl-1,3,4,5-tetrahydropyrido [4,3-b]indol-2-yl)-2-hydroxy-ethanone], the IC50 in the test on THP1-Dual cells is greater than 40000 nM; against h-cGAS it was 583 nM.

As for `O=C(CO)N1CCc2[nH]c3c(F)c(Cl)cc(N4CCC5CC54)c3c2C1` (stereo not shown) [TDI-008861], the results for the IC50 in the test on THP1-Dual cells and on h-cGAS were greater than 10000 nM and 480 nM, respectively.

With `O=C(CO)N1CCc2c(c3ccc(Br)c(F)c3n2C(F)F)C1` [TDI-008179], the IC50 in the test with THP1-Dual cells was found to be 34000 nM; against h-cGAS, 506 nM.

For `C[C@@H]1CN(C(=O)CO)Cc2c1[nH]c1c(F)c(Cl)cc(-c3ccn(C)n3)c21` [TDI-009000], the IC50 in the test with THP1-Dual cells amounted to 2890 nM; against h-cGAS, 24.5 nM.

Regarding `O=C(CO)N1CCc2[nH]c3c(Cl)c(Cl)cc(-c4cncnc4)c3c2C1` [TDI-008074], the IC50 with THP1-Dual cells was found to be 6850 nM; against h-cGAS, 19.4 nM.

As to `Cc1nc(-c2cc(Cl)c(Cl)c3[nH]c4c(c23)CN(C(=O)CO)CC4)no1` [TDI-008937], the IC50 in the test on THP1-Dual cells was found to be 16100 nM; against h-cGAS, 77.6 nM.
